Source: the supplement of paper PMC10307832

Assays:
Experiment in all cases: relative viability (nuclei count vs DMSO), 5 days (fraction); higher = more cells survive
CAP-232 + Vorinostat = compound: C[C@H]([C@@H](C(=O)N)NC(=O)[C@@H]1CSSC[C@@H](C(=O)N[C@H](C(=O)N[C@@H](C(=O)N[C@H](C(=O)N1)CCCCN)CC2=CNC3=CC=CC=C32)CC4=CC=C(C=C4)O)NC(=O)[C@@H](CC5=CC=CC=C5)N)O [CAP-232] + O=C(CCCCCCC(=O)Nc1ccccc1)NO [Vorinostat] (partner 1 µM)
Summary of the method: (§1)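 Lung cancer cell lines in 1536-well plates were dosed by pin tool the day after seeding, either with one drug alone or with a fixed anchor-drug dose plus five library-drug doses (not always all listed) in √10 steps. After 5 days, cells were fixed and their nuclei stained in one step (final 0.05% Triton X-100, 1% formaldehyde, 1 ug/ml Hoechst), then counted on 4× images. Relative viability is the nuclei count in treated wells divided by that in vehicle wells. Values are medians of duplicate plates.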

CAP-232 + Olaparib = compound: C[C@H]([C@@H](C(=O)N)NC(=O)[C@@H]1CSSC[C@@H](C(=O)N[C@H](C(=O)N[C@@H](C(=O)N[C@H](C(=O)N1)CCCCN)CC2=CNC3=CC=CC=C32)CC4=CC=C(C=C4)O)NC(=O)[C@@H](CC5=CC=CC=C5)N)O [CAP-232] + O=C(c1cc(Cc2n[nH]c(=O)c3ccccc23)ccc1F)N1CCN(C(=O)C2CC2)CC1 [Olaparib] (partner 8 µM)
Summary of the method: as §1

CAP-232 + Pemetrexed = compound: C[C@H]([C@@H](C(=O)N)NC(=O)[C@@H]1CSSC[C@@H](C(=O)N[C@H](C(=O)N[C@@H](C(=O)N[C@H](C(=O)N1)CCCCN)CC2=CNC3=CC=CC=C32)CC4=CC=C(C=C4)O)NC(=O)[C@@H](CC5=CC=CC=C5)N)O [CAP-232] + Nc1nc2[nH]cc(CCc3ccc(C(=O)N[C@@H](CCC(=O)O)C(=O)O)cc3)c2c(=O)[nH]1 [Pemetrexed] (partner 0.2 µM)
Summary of the method: as §1

CAP-232 + Decitabine = compound: C[C@H]([C@@H](C(=O)N)NC(=O)[C@@H]1CSSC[C@@H](C(=O)N[C@H](C(=O)N[C@@H](C(=O)N[C@H](C(=O)N1)CCCCN)CC2=CNC3=CC=CC=C32)CC4=CC=C(C=C4)O)NC(=O)[C@@H](CC5=CC=CC=C5)N)O [CAP-232] + Nc1ncn([C@H]2C[C@H](O)[C@@H](CO)O2)c(=O)n1 [Decitabine] (partner 2 µM)
Summary of the method: as §1

CAP-232 + Alpelisib = compound: C[C@H]([C@@H](C(=O)N)NC(=O)[C@@H]1CSSC[C@@H](C(=O)N[C@H](C(=O)N[C@@H](C(=O)N[C@H](C(=O)N1)CCCCN)CC2=CNC3=CC=CC=C32)CC4=CC=C(C=C4)O)NC(=O)[C@@H](CC5=CC=CC=C5)N)O [CAP-232] + Cc1nc(NC(=O)N2CCC[C@H]2C(N)=O)sc1-c1ccnc(C(C)(C)C(F)(F)F)c1 [Alpelisib] (partner 2 µM)
Summary of the method: as §1

Cell Line	relative viability (CAP-232 + Vorinostat; first compound 0.4 µM)	relative viability (CAP-232 + Vorinostat; first compound 1.265 µM)	relative viability (CAP-232 + Vorinostat; first compound 4 µM)	relative viability (CAP-232 + Vorinostat; first compound 12.65 µM)	relative viability (CAP-232 + Olaparib; first compound 0.4 µM)	relative viability (CAP-232 + Olaparib; first compound 1.265 µM)	relative viability (CAP-232 + Olaparib; first compound 4 µM)	relative viability (CAP-232 + Olaparib; first compound 12.65 µM)	relative viability (CAP-232 + Pemetrexed; first compound 0.4 µM)	relative viability (CAP-232 + Pemetrexed; first compound 1.265 µM)	relative viability (CAP-232 + Pemetrexed; first compound 4 µM)	relative viability (CAP-232 + Pemetrexed; first compound 12.65 µM)	relative viability (CAP-232 + Decitabine; first compound 0.4 µM)	relative viability (CAP-232 + Decitabine; first compound 1.265 µM)	relative viability (CAP-232 + Decitabine; first compound 4 µM)	relative viability (CAP-232 + Decitabine; first compound 12.65 µM)	relative viability (CAP-232 + Alpelisib; first compound 0.4 µM)	relative viability (CAP-232 + Alpelisib; first compound 1.265 µM)	relative viability (CAP-232 + Alpelisib; first compound 4 µM)	relative viability (CAP-232 + Alpelisib; first compound 12.65 µM)
PC-3 [JPC-3]	1.3	0.741	0.864	0.741	1.16	1.21	1.2	1.08	1.63	1.05	0.992	0.888	0.738	0.895	0.821	0.864	1.1	1.08	1.03	1.08
SW 1573	0.7	0.867	0.926	0.309	0.395	0.416	0.469	0.356	0.801	0.879	0.789	0.103	0.48	0.534	0.45	0.169	0.744	0.861	0.8	0.672
NCI-H1437	0.921	0.877	0.86	0.828	0.64	0.629	0.665	0.607	0.299	0.288	0.33	0.321	0.559	0.535	0.624	0.523	0.901	1.04	1.05	0.768
NCI-H1734	0.878	0.755	0.803	0.708	0.596	0.609	0.605	0.512	0.44	0.402	0.402	0.307	0.484	0.511	0.516	0.397	0.611	0.662	0.755	0.702
LK-2	0.277	0.249	0.275	0.298	0.762	0.834	0.702	0.811	0.325	0.284	0.326	0.294	0.357	0.234	0.37	0.302	1.02	1.15	1.2	1.75
HCC-15	0.825	0.858	0.959	0.61	0.65	0.711	0.737	0.55	0.19	0.218	0.223	0.0856	0.686	0.62	0.638	0.176	0.935	0.878	0.86	0.824
HCC-366	0.32	0.345	0.418	0.323	0.4	0.383	0.289	0.299	0.201	0.175	0.202	0.17	0.407	0.301	0.317	0.384	0.488	0.337	0.521	0.243
